One assay addresses Abl (Q252H) (h) (Homo sapiens, UniProt P00519, Q252H). The experiment in a line: KinaseProfiler kinase assay. The format is biochemical.
A further assay addresses FGFR3(h) (Homo sapiens, UniProt P22607). In words: KinaseProfiler kinase assay. The format is biochemical.
Another assay deals with Abl (H396P) (h) (Homo sapiens, UniProt P00519, H396P). The experiment in a line: KinaseProfiler kinase assay. It counts as biochemical.
The next assay concerns the target Flt4(h) (Homo sapiens, UniProt P35916). The experiment in a line: KinaseProfiler kinase assay. It counts as biochemical.
A further assay addresses FGFR4(h) (Homo sapiens, UniProt P22455). The experiment in a line: KinaseProfiler kinase assay. It counts as biochemical.
Another assay addresses FGFR2(h) (Homo sapiens, UniProt P21802). In words: KinaseProfiler kinase assay. It counts as biochemical.
The next assay addresses Abl(Y253F)(h) (Homo sapiens, UniProt P00519, Y253F). The experiment in a line: KinaseProfiler kinase assay. It counts as biochemical.
The next assay concerns the target Flt1(h) (Homo sapiens, UniProt P17948). The experiment in a line: KinaseProfiler kinase assay. It counts as biochemical.
A further assay relates to AN3.CA. In words: CellTiterBlue cell growth inhibition. The format is cell-based. Conditions: Homo sapiens, 72 hours. As for the experimental part:
(§1) This example illustrated the proliferating cell growth inhibition of selected compounds from this invention. To do this, the cells were seeded into fresh Iscove's growth medium at a density of 0.4e6 cells/ml and grown in log phase for 24 hr. Cells were then resuspended in their fresh respective growth media at 0.1e^6 cells/ml and plated into 384 well black, clear-bottom microplates at 36 ul/well. Test compounds and controls were initially dissolved in DMSO at the desired concentration, then serially diluted to the assay buffer. These solutions were added and cells were incubated for 72 hours at 37° C. CellTiterBlue (Promega cat# G7572) was added on the Beckman FX. Plates were returned to the 37° C. CO2 incubator for 4 hr and then fluorescence was determined on the Victor plate reader. Data were processed using Microsoft Excel, and GI50 values were generated using Prism (GraphPad Software, San Diego, Calif.).

The test system of another assay is Kato III. The experiment in a line: CellTiterBlue cell growth inhibition. Conditions: Homo sapiens, 72 hours. The format is cell-based. The protocol: as §1
(In general: Resazurin is reduced to fluorescent resorufin, in cell work by metabolically active cells.)

A further assay has as its system KU812. The experiment in a line: CellTiterBlue cell growth inhibition. It counts as cell-based. Conditions: Homo sapiens; KU812, 72 hours. The protocol: as §1
The subject of a further assay is TT. The experiment in a line: CellTiterBlue cell growth inhibition. The format is cell-based. The following applies: Homo sapiens, 72 hours. The protocol:
as §1

For another assay, the system named is RS4.11. In words: CellTiterBlue cell growth inhibition. The format is cell-based. The following applies: Homo sapiens; RS4.11, 72 hours. As for the experimental part:
as §1

In a further assay the target is Ret (V804L)(h) (Homo sapiens, UniProt P07949, V804L). The experiment in a line: KinaseProfiler kinase assay. It counts as biochemical. A digest of the protocol: (§2)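 Using a filter-binding 33P format, reactions initiated by MgATP addition proceeded 40 min at room temperature before a 3% phosphoric acid stop. Filtermats were washed three times in 50 mM phosphoric acid and once in methanol, dried and counted.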

The target in another assay is Ret(V804M)(h) (Homo sapiens, UniProt P07949, V804M). The experiment in a line: KinaseProfiler kinase assay. It counts as biochemical. The gist of the method:
as §2

Assay [1] deals with TT human Thyroid carcinoma xenograft. In words: Thyroid carcinoma xenograft. It counts as in vivo, mouse. As for the experimental part: This example assesses Compound 10, 53 and 88's anti-tumor activity using a SCID mouse xenograft models for TT human Thyroid carcinoma xenograft (FIGS. 65 to 69.)
On the appropriate days, each animal in an appropriate group will receive a specific amount of Compound 10 either at 50 or 100 mg/kg, and the dosing volume is 10 ml/kg by oral gavage as indicated. Dosing schedule will be once daily for 30 days.
On the appropriate days, each animal in an appropriate group will receive a specific amount of Compound 53 either at 50 or 100 mg/kg, and the dosing volume is 10 ml/kg by oral gavage as indicated. Dosing schedule will be once daily for 30 days.
Dosing schedule will be once daily for 30 days.

For a further assay, the target named is DRAK1(h) (Homo sapiens, UniProt Q9UEE5). The experiment in a line: KinaseProfiler kinase assay. The format is biochemical.
For a further assay, the target named is CDK5/p25(h) (Homo sapiens, UniProt Q00535). The experiment in a line: KinaseProfiler kinase assay. It counts as biochemical.
The target of a further assay is GCK(h) (Homo sapiens, UniProt Q12851). In words: KinaseProfiler kinase assay. The format is biochemical.
The next assay addresses PI3 Kinase (p120γ)(h) (Homo sapiens, UniProt P48736). The experiment in a line: KinaseProfiler kinase assay. It counts as biochemical.
A further assay addresses IR(h), activated (Homo sapiens, UniProt P06213). The experiment in a line: KinaseProfiler kinase assay. The format is biochemical.
The target in the next assay is mTOR(h) (Homo sapiens, UniProt P42345). The experiment in a line: KinaseProfiler kinase assay. The format is biochemical.
In a further assay the target is GSK3α(h) (Homo sapiens, UniProt P49840). The experiment in a line: KinaseProfiler kinase assay. It counts as biochemical.
Another assay has as its target BRK(h) (Homo sapiens, UniProt Q13882). The experiment in a line: KinaseProfiler kinase assay. It counts as biochemical.

Sequence of Flt4(h) (P35916 25-1363): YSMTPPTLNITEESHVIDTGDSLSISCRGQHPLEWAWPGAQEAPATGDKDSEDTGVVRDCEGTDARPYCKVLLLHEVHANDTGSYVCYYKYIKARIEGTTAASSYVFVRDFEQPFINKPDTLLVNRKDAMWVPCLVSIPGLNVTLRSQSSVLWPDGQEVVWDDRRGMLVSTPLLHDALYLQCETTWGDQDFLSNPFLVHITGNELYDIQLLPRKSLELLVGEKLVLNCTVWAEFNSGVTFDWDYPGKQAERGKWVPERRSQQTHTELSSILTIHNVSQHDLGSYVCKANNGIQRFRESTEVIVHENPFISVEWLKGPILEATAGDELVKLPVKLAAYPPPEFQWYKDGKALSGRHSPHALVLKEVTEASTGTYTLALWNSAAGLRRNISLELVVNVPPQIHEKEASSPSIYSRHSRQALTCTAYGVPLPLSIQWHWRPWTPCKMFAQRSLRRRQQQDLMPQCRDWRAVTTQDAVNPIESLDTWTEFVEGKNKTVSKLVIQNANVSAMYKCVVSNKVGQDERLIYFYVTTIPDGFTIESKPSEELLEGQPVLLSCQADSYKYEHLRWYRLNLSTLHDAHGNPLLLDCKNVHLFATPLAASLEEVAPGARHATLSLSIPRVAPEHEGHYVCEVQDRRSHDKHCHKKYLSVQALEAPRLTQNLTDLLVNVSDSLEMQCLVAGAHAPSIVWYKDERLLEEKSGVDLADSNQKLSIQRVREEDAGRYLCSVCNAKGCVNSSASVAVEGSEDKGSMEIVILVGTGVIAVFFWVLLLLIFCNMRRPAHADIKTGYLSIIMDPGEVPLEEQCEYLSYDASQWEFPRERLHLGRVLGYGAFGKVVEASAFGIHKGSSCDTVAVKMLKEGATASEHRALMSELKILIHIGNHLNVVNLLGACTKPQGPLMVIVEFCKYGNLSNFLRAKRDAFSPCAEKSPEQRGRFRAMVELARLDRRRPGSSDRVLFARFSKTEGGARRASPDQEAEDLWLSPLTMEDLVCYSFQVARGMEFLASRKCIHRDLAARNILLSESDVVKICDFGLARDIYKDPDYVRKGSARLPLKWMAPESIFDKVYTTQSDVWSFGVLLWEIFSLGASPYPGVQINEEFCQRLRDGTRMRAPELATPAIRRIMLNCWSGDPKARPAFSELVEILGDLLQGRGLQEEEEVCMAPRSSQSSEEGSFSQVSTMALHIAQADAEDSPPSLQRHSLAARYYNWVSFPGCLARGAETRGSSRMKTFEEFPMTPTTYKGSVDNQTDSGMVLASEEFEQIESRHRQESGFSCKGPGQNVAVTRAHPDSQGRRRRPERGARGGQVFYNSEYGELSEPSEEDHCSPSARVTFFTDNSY
Sequence of Ret(V804M)(h) (P07949 29-1114 V804M): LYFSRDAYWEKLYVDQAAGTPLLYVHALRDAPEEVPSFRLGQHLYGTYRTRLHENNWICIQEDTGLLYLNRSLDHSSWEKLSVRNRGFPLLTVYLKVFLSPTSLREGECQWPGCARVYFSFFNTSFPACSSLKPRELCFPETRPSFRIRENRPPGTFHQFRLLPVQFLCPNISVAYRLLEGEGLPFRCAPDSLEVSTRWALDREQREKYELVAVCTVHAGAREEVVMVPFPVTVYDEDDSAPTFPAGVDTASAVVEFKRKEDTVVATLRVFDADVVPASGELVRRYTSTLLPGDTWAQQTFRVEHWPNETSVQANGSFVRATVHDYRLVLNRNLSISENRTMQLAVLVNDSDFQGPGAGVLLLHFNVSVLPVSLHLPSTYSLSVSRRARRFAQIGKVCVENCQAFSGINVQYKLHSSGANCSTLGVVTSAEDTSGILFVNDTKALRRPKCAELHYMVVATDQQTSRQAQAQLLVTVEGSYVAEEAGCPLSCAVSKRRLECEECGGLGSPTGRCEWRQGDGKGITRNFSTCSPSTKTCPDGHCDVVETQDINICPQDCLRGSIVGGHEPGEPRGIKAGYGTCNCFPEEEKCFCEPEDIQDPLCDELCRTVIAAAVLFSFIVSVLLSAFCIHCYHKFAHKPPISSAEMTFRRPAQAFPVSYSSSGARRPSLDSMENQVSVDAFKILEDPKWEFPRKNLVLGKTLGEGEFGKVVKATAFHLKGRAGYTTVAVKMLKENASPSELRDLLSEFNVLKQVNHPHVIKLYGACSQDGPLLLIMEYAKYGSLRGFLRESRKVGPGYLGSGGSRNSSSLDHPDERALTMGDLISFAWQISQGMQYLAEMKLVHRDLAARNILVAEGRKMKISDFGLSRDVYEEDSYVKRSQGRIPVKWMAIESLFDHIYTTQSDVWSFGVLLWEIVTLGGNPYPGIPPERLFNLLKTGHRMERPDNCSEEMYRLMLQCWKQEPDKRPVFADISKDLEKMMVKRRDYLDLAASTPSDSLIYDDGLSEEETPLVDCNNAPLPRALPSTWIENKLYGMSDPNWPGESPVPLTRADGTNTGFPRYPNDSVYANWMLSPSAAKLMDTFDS
Sequence of FGFR4(h) (P22455 22-802): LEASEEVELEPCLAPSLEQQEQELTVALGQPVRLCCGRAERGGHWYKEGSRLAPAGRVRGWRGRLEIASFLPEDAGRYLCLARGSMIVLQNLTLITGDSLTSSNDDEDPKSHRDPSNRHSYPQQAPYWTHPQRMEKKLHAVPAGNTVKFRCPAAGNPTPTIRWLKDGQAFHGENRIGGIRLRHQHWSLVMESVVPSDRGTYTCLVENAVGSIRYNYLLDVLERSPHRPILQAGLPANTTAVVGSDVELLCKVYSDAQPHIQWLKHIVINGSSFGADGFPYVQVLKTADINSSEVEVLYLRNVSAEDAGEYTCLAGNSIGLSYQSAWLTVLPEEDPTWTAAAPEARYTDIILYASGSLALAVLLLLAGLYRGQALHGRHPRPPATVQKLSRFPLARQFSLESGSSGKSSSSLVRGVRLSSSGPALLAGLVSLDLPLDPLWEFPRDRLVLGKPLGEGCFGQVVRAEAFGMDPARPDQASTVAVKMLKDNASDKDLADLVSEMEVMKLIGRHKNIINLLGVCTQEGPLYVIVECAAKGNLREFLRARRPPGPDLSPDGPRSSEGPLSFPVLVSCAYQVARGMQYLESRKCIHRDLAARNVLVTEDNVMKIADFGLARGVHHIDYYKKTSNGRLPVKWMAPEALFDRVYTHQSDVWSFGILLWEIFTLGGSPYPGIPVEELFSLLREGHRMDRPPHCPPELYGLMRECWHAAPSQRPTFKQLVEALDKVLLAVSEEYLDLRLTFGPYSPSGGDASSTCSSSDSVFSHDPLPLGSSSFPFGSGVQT
Sequence of Ret (V804L)(h) (P07949 29-1114 V804L): as the sequence (P07949 29-1114 V804M) above, with M776L counted along it
Sequence of FGFR2(h) (P21802 22-821): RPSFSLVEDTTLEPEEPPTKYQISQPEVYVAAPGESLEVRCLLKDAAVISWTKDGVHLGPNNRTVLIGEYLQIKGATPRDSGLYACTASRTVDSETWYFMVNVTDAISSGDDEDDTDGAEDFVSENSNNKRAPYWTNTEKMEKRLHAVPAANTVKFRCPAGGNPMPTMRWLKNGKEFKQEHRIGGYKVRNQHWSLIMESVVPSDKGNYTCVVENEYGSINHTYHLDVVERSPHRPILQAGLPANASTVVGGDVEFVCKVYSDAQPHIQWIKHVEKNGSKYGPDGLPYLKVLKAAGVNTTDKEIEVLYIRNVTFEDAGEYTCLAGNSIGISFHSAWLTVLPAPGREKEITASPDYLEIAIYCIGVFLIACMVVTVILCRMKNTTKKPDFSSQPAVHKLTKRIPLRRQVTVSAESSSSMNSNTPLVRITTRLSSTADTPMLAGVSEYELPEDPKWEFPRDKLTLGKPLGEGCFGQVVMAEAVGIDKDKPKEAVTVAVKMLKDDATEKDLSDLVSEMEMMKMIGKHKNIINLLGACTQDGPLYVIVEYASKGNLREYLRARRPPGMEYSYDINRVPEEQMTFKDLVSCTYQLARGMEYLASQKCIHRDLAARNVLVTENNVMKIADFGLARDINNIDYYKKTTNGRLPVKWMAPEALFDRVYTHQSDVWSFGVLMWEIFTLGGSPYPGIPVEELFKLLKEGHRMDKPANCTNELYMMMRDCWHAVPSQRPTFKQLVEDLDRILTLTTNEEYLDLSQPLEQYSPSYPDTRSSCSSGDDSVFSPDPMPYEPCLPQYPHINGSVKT
Sequence of FGFR3(h) (P22607 23-806): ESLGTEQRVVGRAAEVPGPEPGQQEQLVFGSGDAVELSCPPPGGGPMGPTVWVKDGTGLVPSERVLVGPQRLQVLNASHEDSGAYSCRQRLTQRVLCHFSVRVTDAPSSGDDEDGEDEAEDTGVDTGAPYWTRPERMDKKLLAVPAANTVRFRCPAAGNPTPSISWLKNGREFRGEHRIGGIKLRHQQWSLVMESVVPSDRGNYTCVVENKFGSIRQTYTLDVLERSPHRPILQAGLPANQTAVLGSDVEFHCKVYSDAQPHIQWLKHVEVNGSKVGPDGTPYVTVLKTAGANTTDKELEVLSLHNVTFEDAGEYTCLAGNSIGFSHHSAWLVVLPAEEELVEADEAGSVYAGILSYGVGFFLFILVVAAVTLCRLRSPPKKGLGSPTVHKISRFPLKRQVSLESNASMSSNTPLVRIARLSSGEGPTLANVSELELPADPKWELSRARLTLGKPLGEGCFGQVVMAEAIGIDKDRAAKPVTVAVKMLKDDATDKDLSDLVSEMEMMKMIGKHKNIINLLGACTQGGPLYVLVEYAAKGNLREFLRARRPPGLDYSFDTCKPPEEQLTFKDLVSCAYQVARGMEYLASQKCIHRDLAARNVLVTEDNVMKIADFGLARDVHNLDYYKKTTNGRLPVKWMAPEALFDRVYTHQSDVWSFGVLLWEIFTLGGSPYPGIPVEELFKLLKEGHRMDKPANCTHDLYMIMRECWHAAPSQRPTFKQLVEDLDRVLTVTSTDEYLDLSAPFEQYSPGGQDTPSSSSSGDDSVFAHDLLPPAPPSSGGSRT

Take `C/C=C/c1cc(Nc2cc(N3CCN(C)CC3)nc(Oc3ccc4[nH]c(C)cc4c3F)n2)n[nH]1` [Compound 53]: the IC50 against Abl (Q252H) (h) (Abl (Q252H)) was 0.5 nM; against FGFR3(h) (FGFR3) it was 1 nM; on Abl (H396P) (h) (Abl (H396P)), under 0.1 nM; against Flt4(h) (VEGFR3), 2 nM; against FGFR4(h) (FGFR4) it was 13 nM; at FGFR2(h) (FGFR2), 2 nM. Also, the IC50 came to 0.5 nM at Abl(Y253F)(h) (Abl (Y253F)), 3 nM against Flt1(h) (VEGFR1), 10 nM against Ret (V804L)(h) (Ret(V804L mutation)) and 6 nM against Ret(V804M)(h) (Ret(V804M mutation)). Further, the GI50 was 0.78 nM in the assay with AN3.CA; 0.06 nM in the assay on Kato III; 0.24 nM in the assay with KU812; 3.5 nM with TT; 11 nM in the assay with RS4.11.

Consider `C/C=C/c1cc(Nc2cc(N3CCN(CCO)CC3)nc(Oc3cc(F)c4[nH]c(C)cc4c3F)n2)n[nH]1` [Compound 88], for which the anti-tumor effect result in assay [1] is “Inhibits Tumor Growth”. Also, the GI50 stood at 0.31 nM with AN3.CA; 0.06 nM in the assay on Kato III; 0.71 nM with KU812; 3.4 nM in the assay on TT; 3.71 nM in the assay with RS4.11.

On to `Cc1cc2c(F)c(Oc3nc(Nc4cc(C5CC5)[nH]n4)cc(N4CCNCC4)n3)cc(F)c2[nH]1` [Compound 82], for which the concentration for 50% growth inhibition (GI50) in the assay on KU812 turned out to be 0.75 nM; in the assay with RS4.11 it was 2.65 nM.

On to `C/C=C/c1cc(Nc2cc(N3CCN(C)CC3)nc(Oc3cc(F)c4[nH]c(C)cc4c3F)n2)n[nH]1` [NTW-3456], for which, in assay [1], the anti-tumor effect result was “significant anti-tumor activity”.

`Cc1cc2c(F)c(Oc3nc(Nc4cc(C5CC5)[nH]n4)cc(N4CCN(C)CC4)n3)ccc2[nH]1` [Compound 10]: the inhibition at 0.1 µM is 99% against Abl (Q252H) (h); 100% on FGFR3(h); 99% against Abl (H396P) (h); 36% against DRAK1(h); 24% at CDK5/p25(h); 100% against Flt4(h). The inhibition at 0.1 µM against GCK(h) is 79%; on PI3 Kinase (p120γ)(h), -2%; on IR(h), activated it was 73%; on mTOR(h) it was 25%; against GSK3α(h), 28%; against FGFR4(h) it was 88%. The inhibition at 0.1 µM on FGFR2(h) came out at 99%; against BRK(h), 54%; against Abl(Y253F)(h), 103%; against Flt1(h), 100%; against Ret (V804L)(h), 103%; on Ret(V804M)(h) it was 96%. In [1], the anti-tumor effect result was “anti-tumor effect”. The 50% growth inhibitory concentration (GI50) with AN3.CA was 3 nM; in the assay on Kato III, 0.07 nM; in the assay on KU812, under 0.025 nM; with TT, 8.3 nM; with RS4.11 it was 3.22 nM.

For the molecule `Cc1cc2c(F)c(Oc3nc(Nc4cc(C5CC5)[nH]n4)cc(N4CCNCC4)n3)ccc2[nH]1` [Compound 11, N-(5-cyclopropyl-1H-pyrazol-3-yl)-2-((4-fluoro-2-methyl-1H-indol-5-yl)oxy)-6-(piperazin-1-yl)pyrimidin-4-amine], the inhibition at 0.1 µM is 102% against Abl (Q252H) (h); 101% at FGFR3(h); 102% against Abl (H396P) (h); 42% against DRAK1(h); 26% at CDK5/p25(h); 100% against Flt4(h). In addition, the inhibition at 0.1 µM against GCK(h) is 85%; against PI3 Kinase (p120γ)(h) it was -1%; at IR(h), activated it was 71%; at mTOR(h), 18%; against GSK3α(h) it was 20%; on FGFR4(h) it was 78%. In addition, the inhibition at 0.1 µM at FGFR2(h) was determined as 99%; against BRK(h) it was 73%; at Abl(Y253F)(h), 100%; against Flt1(h) it was 100%; at Ret (V804L)(h), 102%; against Ret(V804M)(h) it was 101%. The figures for the GI50 with KU812 and with RS4.11 were 1.61 nM and 3.16 nM, respectively.

For `C/C=C/c1cc(Nc2cc(N3CCNCC3)nc(Oc3ccc4[nH]c(C)cc4c3F)n2)n[nH]1` [Compound 68], the results for the 50% growth inhibitory concentration (GI50) in the assay on AN3.CA and in the assay with TT were 0.88 nM and 1.9 nM, respectively.

As a reminder, the IC50 is the midpoint of a concentration-inhibition curve. Low readings indicate greater potency, high ones weaker potency. For orientation: GI50 means the concentration giving 50% growth inhibition. The inhibition is the change of the read-out against control, counted positive when it falls.

The values above are taken from patent publication US10245261B2, “Substituted indol-5-ol derivatives and their therapeutic applications” (NantBioScience, Inc., priority 2013, dated 2019).
